Converted amounts (≈) assume the structure as drawn. Read-outs that look alike come from different tables or passages of the source. Marks after values point to notes of the source that are not given here. Positions of bridges follow the written chain, without caps; N, C: chain ends. Non-standard residues stand in square brackets, D forms with d. Residues, ends and D or L forms follow the SMILES beside them. pGlu = O=C1CC[C@@H](C(=O)O)N1
Tests used:
[1] = system: T. pityocampa larvae; assay: Larval body allometry (body length, head capsule width) on day 14 of treatment; format: in vivo, Thaumetopoea pityocampa; settings: for head capsule width / total body length: 14th day of treatment; for Larva Length, Mean Difference (I-J) versus Control / head capsule width, Mean Difference (I-J) versus Control: day 14, Tukey HSD, n = 20
Procedure: In addition, the ability of the identified hit compounds to alter larval body allometry was tested through measuring total body lengths and head capsule widths on the 14th day of treatment (Fig. 7).
(§1) Insect deaths were evaluated on the 3rd, 7th, and 14th days in toxicity and side effect experiments. The ones that were not feeding or not responding by a movement to stimulation with a soft-tipped brush were accepted as dead. Percentage mortality values generated on the 14th day were corrected using Abbott’s formula[84]. Statistical analyses were executed with IBM SPSS Statistics (v26.0) and R Studio (2022.02.0), and two-way ANOVA and Tukey test were performed to detect the data’s statistical significance. Lethal concentration values of LC50–90 (dose that produces 50-90% mortality in the population) with 95% confidence intervals (CI) and slopes were obtained using PoloPlus software (LeOra Software, USA) for mortality values assessed on the 14th day for T. pityocampa and the 3rd day for L. decemlineata. The LC50–90 values were considered to be similar if their 95% CIs overlapped (P > 0.05)[85]. Analysis between-subject effects on T. pityocampa larva length; one-way ANOVA tests assessing the impacts of molecule treatment on T. pityocampa larvae on larva length; and analysis of between-subjects effects on T. pityocampa head capsule width, alongside one-way ANOVA tests regarding the effects of molecule treatment on T. pityocampa larvae to head capsule width are detailed in the Source Data File (Source Data Supplementary Data Tables 1–4). Source data is available as Source Data File.

[2] = set-up: method as in PMID 19540423, PMID 20936640; settings: cited from earlier work
[3] = system: T. pityocampa AlstR-C; assay: TGF-α shedding assay on HEK293 cells overexpressing the receptor; format: cell-based, Thaumetopoea pityocampa; settings: Gαq/i1, read-out: EC50 (AP-TGFα release)
Procedure: HEK293 cells were maintained in DMEM (PAN Biotech) supplemented with 10% FBS (Gibco) and 1% Penicillin-Streptomycin (Gibco) at 37 °C in a 5% CO2 incubator. Cells were seeded in 6-well plates before transfection, and Lipofectamine™ 3000 Transfection Reagent (Thermo Fisher Scientific) was used for transfection in compliance with the manufacturer’s instructions.
HEK293 cells were seeded in DMEM 10% FBS without P/S to 6-well plates 1 day before the transfection. Following overnight incubation at 37 °C, the cells were cotransfected with plasmids of the desired receptor (100 ng)[44],[48] or pcDNA3.1, AP-TGFα (250 ng), and Gαq/i1 (10 ng) using Lipofectamine™ 3000 Transfection Reagent and incubated 24 h at 37 °C 5% CO2 incubator. Plasmids used for the TGF-α shedding assay were kindly gifted from Prof. Asuka Inoue[82],[83]. TGF-α Shedding Assay was used to measure the activity of studied compounds[83]. Cell harvesting was accomplished with TrypLE™ Express Enzyme (Gibco) since it was previously noted that trypsinization results in a higher background signal. After reseeding the cells in a 96-well plate, 10x concentrations of the compounds prepared in HBSS were applied for stimulation. For compounds not readily soluble in water, a concentration of 0.01 % (w/v) bovine serum albumin (BSA) in HBSS was used for dilution. Each treatment was performed with four replicas. Alkaline phosphatase activity was measured before and after 1-h and 2-h incubation at room temperature, and the absorbance of the plates at 405 nm was measured. AP-TGF-α release signals were fitted to a four-parameter sigmoidal dose-response curve, and EC50 values were calculated using GraphPad Prism 9.5.

[4] = system: T. pityocampa larvae; assay: Toxicity tests, topical application on second instar larvae; format: in vivo; settings: for Mean mortality: highest effect
Procedure: (§2) Pine processionary moth 2nd instar larvae of Thaumetopoea pityocampa for toxicity tests, adult, and 1st instar larvae of predator Calosoma sycophanta, 2nd instar larvae of potato beetle Leptinotarsa decemlineata were used for side effect assays.
T. pityocampa larvae were collected from red pine trees, Pinus brutia, in Nallıhan district of Ankara, Türkiye, in 2021. Larvae were cultured in 60 (±10) % humidity, 27 (±2) °C, and 16:8 light: dark photoperiod and were fed with red pine needles.
Stock solutions of the molecules were dissolved in DMSO, AST-C peptide was dissolved in PBS supplemented with 0.1% BSA pH 7.4. Dilutions were prepared in PBS supplemented with 0.1% BSA pH 7.4 in 50, 100, 250, 500, 750, and 1000 ppm (mg/L) concentrations and later placed in an ultrasonic bath (Sonorex, Bandelin) for ~10 min at 37 °C until all precipitates had vanished. Toxicity tests were conducted 1 day after larvae collection. 5 µL of doses were applied on the dorsal surface of the head-prothorax junction topically. […] Two negative control groups were prepared as PBS-applied and no application. Following the procedures, larvae were fed with 15 g P. brutia needles. Experiments were carried out on 10 larvae for each dosage, with three repeats.
as §1

[5] = system: AlstR-C; assay: GloSensor cAMP assay after forskolin stimulation; format: cell-based, Thaumetopoea pityocampa; settings: after 10 µM forskolin
Procedure: The ability of the hit compounds to activate the Gαi pathway was evaluated using a commercial cAMP assay (GloSensor, Promega). Prior to ligand treatment, cells were stimulated with 10 µM forskolin to elevate intracellular cAMP levels, and the ability of each ligand and control to downregulate cAMP was evaluated after 1 h. […] As an additional control, the ability of the hit compounds to activate a different receptor (5-HTR4) was also assessed using an AP-TGFα assay (Fig. 4k).
HEK293 cells were seeded 30,000 cells per well in DMEM 10% FBS without P/S to Greiner 655094 96-well plates 1 day before the transfection. Following overnight incubation at 37 °C, the cells were cotransfected with plasmids of the desired receptor along with GloSensor^TM cAMP plasmid using Lipofectamine™ 3000 Transfection Reagent and incubated 24 h at 37 °C 5% CO2 incubator. […] The baseline development was measured on a Thermo Scientific Fluoroskan Ascent FL Microplate Fluorometer and Luminometer plate reader following the cell stimulation with 10 μL 10 μM forskolin, approximately 1 h. […] Luminescence was measured at 1 read per well every 2 min, scaling factor was 10. Data were analyzed by calculating the area under the curve (AUC) over the ~2-h measurement period. Statistical significance was measured with ANOVA, and multiple comparisons were done with Dunnett’s Test. […]

[6] = Side effect tests on potato beetle larvae, topical application; format: in vivo; settings: Leptinotarsa decemlineata, in vivo
Procedure: as §2
(§3) L. decemlineata larvae were collected from a potato field in Kahramankazan district of Ankara province in 2022. The larvae were cultured in the laboratory under 60% (±10) humidity, 27(±2) °C temperature, and 16:8 light: dark photoperiod with potato plant leaves.
(§4) Effective molecules of toxicity tests were applied on adults, 1st instar larvae of predator C. sycophanta, and 2nd instar larvae of potato beetle L. decemlineata to evaluate side effects.
(§5) 5 µL of 1000 ppm dose were applied topically on the dorsal surface of the head-prothorax junction 2nd instar larvae of potato beetle. 30 larvae were used in assays, and larvae were placed on potato leaves inside the water-filled cups for feeding. Negative control groups were as previously described. Dimilin 25 WP (%25 diflubenzuron) was used as a positive control on L. decemlineata. Experiments were carried out with three repeats.
as §1

[7] = system: Calosoma sycophanta first-instar larvae and adults; assay: Side effect tests on predatory insect, topical application; format: in vivo; settings: 1000 ppm topical, days 3, 7, 14
Procedure: as §2
C. sycophanta adults and T. pityocampa nests were collected from Korkuteli forests in Antalya 2022. T. pityocampa nests were stored at +4 °C to prevent pupae formation. 20 adult C. sycophanta were placed in clear plastic boxes (30 × 45 × 30 cm) with moist soil at the bottom. Adults were fed with T. pityocampa larvae regularly. After mating, C. sycophanta eggs were collected from the soil with a soft tip brush, and eggs were reserved in moist cotton until eggs cracked. Subsequently, C. sycophanta larvae were placed individually in clear, hard plastic cups (180 cm^3) containing moist soil and covered with glass. One T. pityocampa larva per day was added to each cup for feeding. Predator insects were cultured in 65 (±5) % humidity, 25 (±5) °C, and 16:8 light: dark photoperiod.
as §4
C. sycophanta larvae and adults were placed individually in clear, hard plastic cups (180 cc) containing moist soil. 5 µL of 1000 ppm dose was applied topically on the head-prothorax junction’s dorsal surface. 50 larvae and adults were used in the experiments. One T. pityocampa larva per day was added to each cup for feeding. Two negative controls were PBS-applied and no application groups.
as §1, with “Analysis between-subject effects on T. pityocampa larva length; one-way ANOVA tests assessing the impacts of molecule treatment on T. pityocampa larvae on larva length; and analysis of between-subjects effects on T. pityocampa head capsule width, alongside one-way ANOVA tests regarding the effects of molecule treatment on T. pityocampa larvae to head capsule width are detailed in the Source Data File (Source Data Supplementary Data Tables 1–4). Source data is available as Source Data File.” left out

[8] = system: Leptinotarsa decemlineata second-instar larvae; assay: Side effect tests on potato beetle larvae, topical application; format: in vivo; settings: 1000 ppm topical, second-instar larvae, days 3, 7, 14
Procedure: as §2, §3, §4, §5, §1

[9] = day 14 mortality, Probit analysis
[10] = Thaumetopoea pityocampa, topical, 336 h, read-out: LC50 (95% CI)
[11] = Thaumetopoea pityocampa, topical, 336 h

Row | SMILES | EC50 [3] | head capsule width [1] | total body length [1] | Larva Length, Mean Difference (I-J) versus Control [1] | head capsule width, Mean Difference (I-J) versus Control [1] | shelf life and degradation in the environment [2] | Mean mortality ([4]; 14 days post-administration) | LC50 ([4]; day 14 after the application, Probit analysis) | LC50 (95% CI) [4, 9] | LC90 (95% CI) [4, 9] | ability to downregulate cAMP (RLU) [5] | LC50 at 3 days ([6]; L. decemlineata larvae, positive control, 3rd day mortality) | LC50 at 3 days ([6]; potato beetle larvae, after 3 days of application) | Insect deaths (mortality rate) [7] | mortality rate ([4]; 14 days post-administration, highest dose) | LC50 [4, 10] | mortality ([4]; end of day 7, 1000 ppm) | Insect deaths (mortality rate) [8] | LC50 [4, 11] | mortality ([4]; after 3 days, >500 ppm)
1 | CC[C@H](C)[C@@H]1NC(=O)[C@@H]2CCCN2C(=O)[C@H](CC(N)=O)NC(=O)[C@H](Cc2ccccc2)NC(=O)[C@H](Cc2ccc(O)cc2)NC(=O)[C@@H](NC(=O)[C@H](CCC(N)=O)NC(=O)[C@H](CCCNC(=N)N)NC(=O)[C@H](Cc2ccccc2)NC(=O)[C@H](CCCNC(=N)N)NC(=O)[C@@H](NC(=O)[C@@H]2CCC(=O)N2)C(C)C)CSSC[C@@H](C(=O)N[C@@H](Cc2ccccc2)C(=O)O)NC(=O)[C@H](CO)NC1=O [AST-C, reference compound] ([pGlu]VRFRQCYFNPISCF-OH; disulfide 7-14; C-terminus assumed) | 0.000623 µM | Statistically significant decreases | Statistically significant decreases | -9,070* mm | -1,105* mm | comparatively short shelf life and undergoes rapid degradation in the environment | 100% | 152 ppm | 152.414 (101.993–209.528) mg/L | 782.851 (512.785–1616.980) mg/L | most significant impact |  |  |  |  |  |  |  |  | 
2 | O=C(NC(=O)c1c(F)cccc1F)Nc1ccc(Cl)cc1 [Diflubenzuron, diflubenzuron, reference compound] |  |  |  |  |  |  |  |  |  |  |  | 38.5 µg/mL (≈ 124 µM) | 38 µg/mL (≈ 122 µM) |  |  |  |  |  |  | 
3 | O=C1c2n[nH]c(-c3ccccc3O)c2C(c2cccc(Oc3ccccc3)c2)N1CC1CCCO1 (stereo not drawn) [D074-0013] | 1.42 µM | small compared to other molecules | small compared to other molecules | -4,445* mm |  |  |  |  |  |  |  |  |  | below 10% | below 50% | > 1000 µg/mL | 27% | below 10% |  | 
4 | COc1ccc([C@H](CC(=O)NCc2ccncc2)c2cn(Cc3ccc(C)cc3)c3ccccc23)cc1OCc1ccccc1 [V029-3547] | 8.17 µM |  |  | -8,705* mm | -1,120* mm |  | 83.7% |  |  | 900.815 (696.503–1634.450) mg/L | greatest ability to modulate cAMP |  |  | below 10% |  | 406 µg/mL (≈ 682 µM) |  | below 10% | 406 µg/mL (≈ 682 µM) | > 63.3%

Continued, in another order:

Row | EC50 [3] | SMILES | head capsule width [1] | total body length [1] | Larva Length, Mean Difference (I-J) versus Control [1] | head capsule width, Mean Difference (I-J) versus Control [1] | shelf life and degradation in the environment [2] | Mean mortality ([4]; 14 days post-administration) | LC50 ([4]; day 14 after the application, Probit analysis) | LC50 (95% CI) [4, 9] | LC90 (95% CI) [4, 9] | ability to downregulate cAMP (RLU) [5] | LC50 at 3 days ([6]; L. decemlineata larvae, positive control, 3rd day mortality) | LC50 at 3 days ([6]; potato beetle larvae, after 3 days of application) | Insect deaths (mortality rate) [7] | mortality rate ([4]; 14 days post-administration, highest dose) | LC50 [4, 10] | mortality ([4]; end of day 7, 1000 ppm) | Insect deaths (mortality rate) [8] | LC50 [4, 11] | mortality ([4]; after 3 days, >500 ppm)
5 | 5.66 µM | O=C(C[C@@H]1NC(=O)c2ccccc2NC1=O)NCCn1c(=O)c(O)nc2ccccc21 [J100-0311] |  |  | -8,015* mm | -1,075* mm |  |  |  |  | 6740.368 (2743.061–6.275 × 10^4) mg/L |  |  |  | below 10% |  | 412 µg/mL (≈ 977 µM) |  | below 10% | 411 µg/mL (≈ 975 µM) | 
6 | 4.7 µM | O=C1c2n[nH]c(-c3ccccc3O)c2C(c2cccc(OCc3ccccc3)c2)N1CC1CCCO1 (stereo not drawn) [D074-0034] |  |  | -7,845* mm | -1,000* mm |  |  |  |  |  |  |  |  | below 10% |  | 444 µg/mL (≈ 921 µM) |  | below 10% | 443 µg/mL (≈ 920 µM) | 
